# Test results published in article PMC12042115 (mLife, 2025).
# Like-named read-outs stand apart in the source and are kept apart here.
# System: wild‐type BCG cells
# Assay type: cell-based, M. bovis BCG
# Conditions: for Mean_Ratio (GDI5755_3d vs DMSO_3d): down-regulated, 3 d; for Mean Ratio: GDI5755_2d vs DMSO_2d; for Mean Ratio / Mean Ratio (GDI5755_2d vs DMSO_2d): up-regulated; for Mean Ratio (GDI5755_2d vs DMSO_2d): 2d
structure (smiles),measurement,setting,value
O=C(Oc1ccc(Cl)cc1)c1ccc(N2CCOCC2)c([N+](=O)[O-])c1 [GDI‐5755],Mean_Ratio (GDI5755_3d vs DMSO_3d),"protein A0A0H3MBJ1, BCG_2011c (Rv1994c), HTH-type transcriptional regulator CmtR",0.738
same,Mean Ratio,protein A0A0H3MBK5 Phosphate-binding protein PstS3,1.29
same,Mean Ratio,protein A0A0H3MBM4 NAD(P)H nitroreductase acg,1.30
same,Mean Ratio,protein A0A0H3MBN2 Nuclear transport factor 2 domain-containing protein,1.27
same,Mean Ratio,protein A0A0H3MBN6 Amidohydrolase 3 domain-containing protein,1.27
same,Mean Ratio (GDI5755_2d vs DMSO_2d),protein A0A0H3MBR5 Probable acetyl-/propionyl-coa carboxylase (Beta subunit) accD2,1.32
same,Mean Ratio,protein A0A0H3MBT4 Probable conserved lipoprotein LppL,1.32
same,Mean Ratio,protein A0A0H3MBZ9 Probable conserved transmembrane protein alanine and leucine rich,1.27
same,Mean_Ratio (GDI5755_3d vs DMSO_3d),"protein A0A0H3MC34, BCG_2260 (Rv2243), Malonyl CoA-acyl carrier protein transacylase fabD",0.7
same,Mean_Ratio (GDI5755_3d vs DMSO_3d),"protein A0A0H3MC70, BCG_1203c (Rv1141c), Probable enoyl-CoA hydratase echA11",0.7
same,Mean_Ratio (GDI5755_3d vs DMSO_3d),"protein A0A0H3MC82, BCG_2311 (Rv2295), CbrC family protein",0.745
same,Mean_Ratio (GDI5755_3d vs DMSO_3d),"protein A0A0H3MC88, BCG_2317 (Rv2301), Cutinase",0.7
same,Mean Ratio,protein A0A0H3MCA1 Alpha/beta hydrolase,1.25
same,Mean_Ratio (GDI5755_3d vs DMSO_3d),"protein A0A0H3MCB3, BCG_1267 (Rv1207), Dihydropteroate synthase",0.7
same,Mean Ratio,protein A0A0H3MCC0 Probable tetronasin-transport atp-binding protein ABC transporter,1.26
same,Mean Ratio,protein A0A0H3MCD2 Transmembrane ATP-binding protein ABC transporter,1.25
same,Mean_Ratio (GDI5755_3d vs DMSO_3d),"protein A0A0H3MCL1, BCG_1383 (Rv1322), ATP/GTP-binding protein",0.7
same,Mean_Ratio (GDI5755_3d vs DMSO_3d),"protein A0A0H3MCL6, BCG_2443c, AAA+ ATPase domain-containing protein",0.751
same,Mean Ratio,protein A0A0H3MD23 Possible exported conserved protein,1.30
same,Mean_Ratio (GDI5755_3d vs DMSO_3d),"protein A0A0H3MDI1, BCG_3731c (Rv1665), Possible chalcone synthase pks11",0.7
same,Mean_Ratio (GDI5755_3d vs DMSO_3d),"protein A0A0H3MDQ0, BCG_2970c (Rv2949c), Chorismate pyruvate-lyase",0.746
same,Mean_Ratio (GDI5755_3d vs DMSO_3d),"protein A0A0H3MDQ9, BCG_2994c (Rv2972c), Possible conserved membrane or exported protein",0.756
same,Mean Ratio (GDI5755_2d vs DMSO_2d),protein A0A0H3MDS7 Probable conserved lipoprotein lppZ,1.35
same,Mean Ratio,protein A0A0H3ME30 Possible oxidoreductase,1.30
same,Mean_Ratio (GDI5755_3d vs DMSO_3d),"protein A0A0H3ME93, BCG_1959 (Rv1920), Probable membrane protein",0.752
same,Mean Ratio,protein A0A0H3MEA5 methanethiol S-methyltransferase,1.26
same,Mean Ratio,protein A0A0H3MEB3 HNH nuclease domain-containing protein,1.25
same,Mean_Ratio (GDI5755_3d vs DMSO_3d),"protein A0A0H3MEK1, BCG_3412 (Rv3342), Possible methyltransferase (Methylase)",0.7
same,Mean_Ratio (GDI5755_3d vs DMSO_3d),"protein A0A0H3MER9, BCG_3475c (Rv3405c), HTH-type transcriptional repressor",0.758
same,Mean_Ratio (GDI5755_3d vs DMSO_3d),"protein A0A0H3MEW3, BCG_3538c (Rv3473c), Possible peroxidase bpoA",0.749
same,Mean Ratio (GDI5755_2d vs DMSO_2d),protein A0A0H3MF17 Serine protease Hip1,1.35
same,Mean Ratio,protein A0A0H3MF23 Possible CoA-transferase (Beta subunit),1.25
same,Mean Ratio,protein A0A0H3MF38 Glycerol-3-phosphate dehydrogenase,1.31
same,Mean_Ratio (GDI5755_3d vs DMSO_3d),"protein A0A0H3MF62, BCG_2297c (Rv2282c), Probable transcription regulator (LysR family)",0.737
same,Mean_Ratio (GDI5755_3d vs DMSO_3d),"protein A0A0H3MFB8, BCG_3726c, Protease",0.739
same,Mean Ratio,protein A0A0H3MFJ3 Transcriptional regulatory protein (Probably arsR-family),1.25
same,Mean Ratio (GDI5755_2d vs DMSO_2d),protein A0A0H3MFK9 DSBA-like thioredoxin domain-containing protein,1.33
same,Mean Ratio (GDI5755_2d vs DMSO_2d),protein A0A0H3MFL5 histidine kinase,1.35
same,Mean Ratio,protein A0A0H3MFN8 Probable O-antigen/lipopolysaccharide transport integral membrane protein ABC transporter rfbD,1.29
same,Mean_Ratio (GDI5755_3d vs DMSO_3d),"protein A0A0H3MFR0, BCG_2539c (Rv2518c), L,D-transpeptidase 2, ldtB/L,D-transpeptidase LdtMt2",0.7
same,Mean Ratio,protein A0A0H3MFS0 Acyltransferase,1.28
same,Mean Ratio,protein A0A0H3MFX4 Protein translocase subunit SecD,1.31
same,Mean_Ratio (GDI5755_3d vs DMSO_3d),"protein A0A0H3MG15, BCG_2663 (Rv2636), O-phosphotransferase",0.7
same,Mean Ratio,protein A0A0H3MG43 Probable antibiotic-transport ATP-binding protein ABC transporter,1.28
same,Mean Ratio,protein A0A0H3MG65 Probable conserved transmembrane protein,1.25
same,Mean Ratio,protein A0A0H3MG92 Conserved 35 kDa alanine rich protein,1.27
same,Mean Ratio,protein A0A0H3MGD9 Metal-dependent hydrolase,1.32
same,Mean_Ratio (GDI5755_3d vs DMSO_3d),"protein A0A0H3MGM3, BCG_2905 (Rv2884), Probable transcriptional regulatory protein",0.744
same,Mean Ratio,protein A0A0H3MGP1 Probable transcriptional regulatory protein (Probably tetR-family),1.30
same,Mean Ratio,protein A0A0H3MGS1 Probable integral membrane protein,1.30
same,Mean_Ratio (GDI5755_3d vs DMSO_3d),"protein A0A0H3MGU7, BCG_3025c (Rv3003c), Acetolactate synthase",0.7
same,Mean Ratio,protein A0A0H3MH35 Hydroxylase,1.30
same,Mean_Ratio (GDI5755_3d vs DMSO_3d),"protein A0A0H3MH58, BCG_3141 (Rv3116), PRobable molybdenum cofactor biosynthesis protein moeB2",0.7
same,Mean_Ratio (GDI5755_3d vs DMSO_3d),"protein A0A0H3MH84, BCG_3167c (Rv3144c), PPE family protein",0.7
same,Mean_Ratio (GDI5755_3d vs DMSO_3d),"protein A0A0H3MHH8, BCG_3287c (Rv3258c), DUF3499 domain-containing protein",0.757
same,Mean Ratio (GDI5755_2d vs DMSO_2d),protein A0A0H3MHJ0 Probable metal cation-transporting P-type atpase C ctpC,1.38
same,Mean_Ratio (GDI5755_3d vs DMSO_3d),"protein A0A0H3MIJ3, BCG_3667c (Rv3603c), Conserved hypothetical alanine and leucine rich protein",0.7
same,Mean Ratio,protein A0A0H3MJ41 Uncharacterized protein,1.29
same,Mean_Ratio (GDI5755_3d vs DMSO_3d),"protein A1KF76, BCG_0293c (Rv0255c), Cobyric acid synthase",0.7
same,Mean Ratio,protein A1KFU9 Heparin-binding hemagglutinin,1.29
same,Mean_Ratio (GDI5755_3d vs DMSO_3d),"protein A1KGJ8, BCG_0767 (Rv0717), Small ribosomal subunit protein uS14B",0.746
same,Mean Ratio,protein A1KHB8 Signal transduction histidine-protein kinase/phosphatase MprB,1.30
same,Mean_Ratio (GDI5755_3d vs DMSO_3d),"protein A1KHH0, BCG_1089 (Rv1031), Potassium-transporting ATPase KdpC subunit",0.7
same,Mean Ratio,protein A1KI12 Sec-independent protein translocase protein TatB,1.27
same,Mean_Ratio (GDI5755_3d vs DMSO_3d),"protein A1KI86, BCG_1358 (Rv1298), Large ribosomal subunit protein bL31",0.7
